Data taken from US5079346A, “Gallium-labelled imaging agents” (priority 1990, dated 1992).
Values joined by “and” are separate entries in the source; they are usually repeats but may differ in a detail not shown here. Equal values may be shown once. Read-outs that look alike come from different tables or passages of the source.

Assays:
[1] = literature, cited from earlier work
[2] = literature; cited from earlier work
[3] = Biodistribution in rats after an iv injection; type: in vivo, male Sprague Dawley rats; details: for Biodistribution, Blood: blood assumed 7% of body weight; for Biodistribution, Muscle: muscle assumed 40% of body weight; for Brain/Blood: ratio
Experimental: Biodistribution of [^67 Ga]BAT-TECH was studied in male Sprague Dawley rats (200-250 g) which were allowed access to food and water ad lib. Saline solution containing [^67 Ga]BAT-TECH in a volume of 0.2 ml was injected directly into a femoral vein. Rats were sacrified (at various time points, 2, 30 and 60 min., post injection) by cardiac excision under ether anesthesia. The organs of interest were removed and counted using a well gamma counter. Percent dose per organ was calculated by comparison of tissue counts to suitably diluted aliquots of injected material. Total activities of blood and muscle were calculated assuming that they are 7% and 40% of total body weight, respectively. Each time point consists of a group of three rats.
2,9-Dimethyl-2,9-mercapto-5-(2-hydroxyphnyl)-4,7-diazadecane was labelled, and the biodistributino of the labelled compound measured, by analogous methods.

[4] = Lipid solubility (reverse phase HPLC, PRP-1 column); type: physicochemical; details: PRP-1, pH 7
Experimental: At tracer concentrations, the aqueous chemistry has been studied using [^67 Ga] gallium citrate as the starting material. […] The ratio of ligand to ^67 Ga was determined to be […]. Presumably, under the conditions required for the preparation of the ^67 Ga complex, the cationic [^67 Ga(BAT-TECH)]^+ species is formed.

[5] = 1-octanol/0.1 m phosphate
Experimental: The partition coefficient of the [^67 Ga(BAT-TECH)]^+ complex was measured by mixing the compound with 3 g each of 1-octanol and buffer (pH 7.0 or 7.4, 0.1 M phosphate) in a test tube. This test tube was vortexed for 3 minutes at room temperature and then centrifuged for 5 minutes. Two weighed samples (0.5 g each) from the 1-octanol and buffer layers were counted in a well counter. The partition coefficient was determined by calculating the ratio of counts per minute/gram of octanol to that of buffer. Samples from the octanol layer were repartitioned until consistent partition coefficient values were obtained. The measurement was repeated three times.

[6] = rats, cited from earlier work
[7] = iv, versus [^68 Ga](5-MeOSal)3 TAME

## CNC1=NN=CC(C)=NN=C(NC)[S][Cu][S]1 [Cu(PTSM), copper-labeled pyruvaldehyde bis(N4-methylthiosemicarbazone)]
[1]; after interacting with sulfurhydryl groups
  intracellular stability: decomposes intracellularly
[1]; after intravenous injection
  passage through the cell membrane / blood-brain barrier: passes through the cell membrane, including the intact blood-brain barrier
[2]
  lipid solubility: neutral and lipid-soluble

## CC1(C)C[NH+]2CC(c3ccccc3O)[NH+]3CC(C)(C)[S][67Ga-]23[S]1 (stereo not drawn) [[^67 Ga]2,9-Dimethyl-2,9-Dimercapto-5-(2-hydroxyphenyl)-4,7-diazadecane]
[3]; iv, 2 min
  Biodistribution, Brain: .026 ± .002 % dose/organ
  Biodistribution, Heart: .940 ± .094 % dose/organ
  Biodistribution, Kidney: 5.677 ± .266 % dose/organ
  Biodistribution, Liver: 20.93 ± 4.13 % dose/organ
  Biodistribution, Lung: 1.236 ± .155 % dose/organ
  Biodistribution, Skin: .137 ± .023 % dose/organ
  Biodistribution, Spleen: .431 ± .085 % dose/organ
  Biodistribution, Blood: 11.240 ± .724 % dose/organ
  Biodistribution, Muscle: 14.392 ± 2.91 % dose/organ
  Brain/Blood: .028
[3]; iv, 30 min
  Biodistribution, Brain: .019 ± .001 % dose/organ
  Biodistribution, Heart: .380 ± .039 % dose/organ
  Biodistribution, Kidney: 1.204 ± .080 % dose/organ
  Biodistribution, Liver: 25.31 ± 1.09 % dose/organ
  Biodistribution, Lung: .690 ± .481 % dose/organ
  Biodistribution, Skin: .079 ± .004 % dose/organ
  Biodistribution, Spleen: .155 ± .022 % dose/organ
  Biodistribution, Blood: 2.823 ± .182 % dose/organ
  Biodistribution, Muscle: 17.49 ± 1.37 % dose/organ
  Brain/Blood: .073

## CCC1(CC)C[NH+]2CC3(CCCCC3)[NH+]3CC(CC)(CC)[S][67Ga-]23[S]1 (stereo not drawn) [[^67 Ga]BAT-TECH]
[4]
  lipid solubility: very lipid-soluble
[3]; in words
  blood and lung washout: rapid blood and lung washout
  myocardial uptake: fast myocardial uptake
[3]; iv
  uptake in the liver, washout: significant uptake in the liver which does not wash out with time
[3]; iv, 2 min
  Biodistribution, Brain: 0.02 ± 0.004 % dose/organ
  Biodistribution, Heart: 1.68 % dose/organ and 1.68 ± 0.12 % dose/organ
  Biodistribution, Kidney: 6.94 ± 0.31 % dose/organ
  Biodistribution, Liver: 21.52 ± 1.11 % dose/organ
  Biodistribution, Lung: 2.07 ± 0.07 % dose/organ
  Biodistribution, Skin: 5.44 ± 1.65 % dose/organ
  Biodistribution, Spleen: 0.50 ± 0.06 % dose/organ
  Biodistribution, Blood: 10.18 ± 0.30 % dose/organ
  Biodistribution, Muscle: 13.89 ± 3.21 % dose/organ
[3]; iv, 30 min
  Biodistribution, Brain: 0.01 ± 0.001 % dose/organ
  Biodistribution, Heart: 0.52 ± 0.08 % dose/organ
  Biodistribution, Kidney: 2.00 ± 0.10 % dose/organ
  Biodistribution, Liver: 33.54 ± 4.42 % dose/organ
  Biodistribution, Lung: 0.46 ± 0.09 % dose/organ
  Biodistribution, Skin: 7.56 ± 1.60 % dose/organ
  Biodistribution, Spleen: 0.15 ± 0.009 % dose/organ
  heart uptake: 0.52 % dose/g
  Biodistribution, Blood: 3.58 ± 0.08 % dose/organ
  Biodistribution, Muscle: 21.14 ± 2.18 % dose/organ
[3]; iv, 60 min
  Biodistribution, Brain: 0.01 ± 0.002 % dose/organ
  Biodistribution, Heart: 0.26 ± 0.02 % dose/organ
  Biodistribution, Kidney: 1.06 ± 0.14 % dose/organ
  Biodistribution, Liver: 46.41 ± 2.39 % dose/organ
  Biodistribution, Lung: 0.37 ± 0.009 % dose/organ
  Biodistribution, Skin: 5.78 ± 0.92 % dose/organ
  Biodistribution, Spleen: 0.11 ± 0.001 % dose/organ
  Biodistribution, Blood: 4.54 ± 1.10 % dose/organ
  Biodistribution, Muscle: 10.79 ± 1.85 % dose/organ
[3]; iv, 1 hour
  heart uptake: 0.26 % dose/g
[3]; [7]
  heart to blood ratio: comparable to or superior to those reported for [^68 Ga](5- MeOSal)3 TAME
  heart to lung ratio: comparable to or superior to those reported for [^68 Ga](5- MeOSal)3 TAME
[5]; pH 7
  partition coefficient (1-octanol/buffer): 147±5.18
[5]; pH 7.4
  partition coefficient (1-octanol/buffer): 72.3±3.47

## COc1ccc2c(c1)C=NCC1(C)CN=Cc3cc(OC)ccc3[O][68Ga]([O]2)[O]c2ccc(OC)cc2C=NC1 [[^68 Ga](5-MeOSal)3 TAME, Gallium-68 1,1,1-tris (5-methoxysalicylaldimino-methyl)ethane]
[6]; 1 min postinjection
  heart uptake: 0.97 % dose/whole heart
[6]; 30 min postinjection
  heart uptake: 0.23 % dose/whole heart
[6]; 60 min postinjection
  heart uptake: 0.14 % dose/whole heart
